{"source": "patent US7648979B2", "about": "“5-amido-(1H-indol-2-yl)-piperazin-1-yl-methanone derivatives” (Hoffmann-La Roche Inc., priority 2007, dated 2010)"}
{"target": "histamine 3 receptor (H3R) (Homo sapiens, UniProt Q9Y5N1)", "sequence (Q9Y5N1 whole entry)": "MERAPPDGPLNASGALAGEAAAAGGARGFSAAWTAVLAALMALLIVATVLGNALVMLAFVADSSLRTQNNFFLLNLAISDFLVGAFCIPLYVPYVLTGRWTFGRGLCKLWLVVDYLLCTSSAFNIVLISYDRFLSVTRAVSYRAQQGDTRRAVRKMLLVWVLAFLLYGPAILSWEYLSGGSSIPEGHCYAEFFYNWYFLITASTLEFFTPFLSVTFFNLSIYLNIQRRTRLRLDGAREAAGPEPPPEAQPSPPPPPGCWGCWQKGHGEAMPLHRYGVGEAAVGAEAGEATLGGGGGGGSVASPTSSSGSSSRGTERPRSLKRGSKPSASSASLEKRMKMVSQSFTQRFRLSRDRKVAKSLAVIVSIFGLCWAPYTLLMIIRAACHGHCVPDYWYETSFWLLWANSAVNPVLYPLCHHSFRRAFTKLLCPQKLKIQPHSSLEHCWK", "experiment": "Binding Assay with 3H-(R)α-methylhistamine (competition binding, membranes of human H3R-CHO cell line)", "conditions": "competition with 3H(R)α-methylhistamine (1 nM), Ki calculated from IC50 by Cheng-Prusoff", "protocol": "Binding Assay with ^3H-(R)α-methylhistamine\nSaturation binding experiments were performed using HR3-CHO membranes prepared as described in Takahashi, K, Tokita, S., Kotani, H. (2003) J. Pharmacol. Exp. Therapeutics 307, 213-218.\nAn appropriate amount of membrane (60 to 80 μg protein/well) was incubated with increasing concentrations of ^3H(R)α-Methylhistamine di-hydrochloride (0.10 to 10 nM). Non specific binding was determined using a 200 fold excess of cold (R)α-Methylhistamine dihydrobromide (500 nM final concentration). The incubation was carried out at room temperature (in deep-well plates shaking for three hours). The final volume in each well was 250 μl. The incubation was followed by rapid filtration on GF/B filters (pre-soaked with 100 μl of 0.5% PEI in Tris 50 mM shaking at 200 rpm for two hours). The filtration was made using a cell-harvester and the filter plates were then washed five times with ice cold washing buffer containing 0.5 M NaCl. After harvesting, the plates were dried at 55° C. for 60 min, then we added scintillation fluid (Microscint 40, 40 microl in each well) and the amount of radioactivity on the filter was determined in Packard top-counter after shaking the plates for two hours at 200 rpm at room temperature.\nBinding Buffer: 50 mM Tris-HCl pH 7.4 and 5 mM MgCl2×6H2O pH 7.4. Washing Buffer: 50 mM Tris-HCl pH 7.4 and 5 mM MgCl2×6H2O and 0.5 M NaCl pH 7.4.\nIndirect measurement of affinity of H3R inverse agonists: twelve increasing concentrations (ranging from 10 μM to 0.3 nM) of the selected compounds were always tested in competition binding experiments using membrane of the human H3R—CHO cell line. […]\nAll compounds were tested at a single concentration in duplicate. […] Ki's were calculated from IC50 based on Cheng-Prusoff equation (Cheng, Y, Prusoff, W H (1973) Biochem Pharmacol 22, 3099-3108): Ki=IC50/[1+D/Kd] wherein D is the concentration of the radioligand and Kd is the binding constant for the radioligand binding to the receptor under the conditions used in the competition experiment.", "units": {"Ki": "nM"}}
{"compound": "CC(C)N1CCN(C(=O)c2ccc3c(c2)cc(C(=O)N2CCN(S(=O)(=O)c4ccccc4)CC2)n3-c2ccnc(Cl)c2)CC1", "note": "[Example 17, (4-Benzenesulfonyl-piperazin-1-yl)-[1-(2-chloro-pyridin-4-yl)-5-(4-isopropyl-piperazine-1-carbonyl)-1H-indol-2-yl]-methanone]", "Ki": 5.7}
{"compound": "CC(C)N1CCN(C(=O)c2ccc3c(c2)cc(C(=O)N2CCN(C(=O)N4CCCCC4)CC2)n3-c2ccnc(Cl)c2)CC1", "note": "[Example 19, [1-(2-Chloro-pyridin-4-yl)-5-(4-isopropyl-piperazine-1-carbonyl)-1H-indol-2-yl]-[4-(piperidine-1-carbonyl)-piperazin-1-yl]-methanone]", "Ki": 7.5}
{"compound": "CC(C)N1CCN(C(=O)c2ccc3c(c2)cc(C(=O)N2CCN(S(C)(=O)=O)CC2)n3-c2ccnc(Cl)c2)CC1", "note": "[Example 7, [1-(2-Chloro-pyridin-4-yl)-5-(4-isopropyl-piperazine-1-carbonyl)-1H-indol-2-yl]-(4-methanesulfonyl-piperazin-1-yl)-methanone]", "Ki": 11.7}
